Reference: ChEMBL document CHEMBL2073770, “Induction of multidrug resistance gene expression in rat liver cells in response to acute treatment by the DNA-damaging agent methyl methanesulfonate” (Biochem Biophys Res Commun, 1998)

Biological target: ATP-dependent translocase ABCB1 (Rattus norvegicus, UniProt P43245)
Test: TP_TRANSPORTER: RT-PCR in vitro, liver epithelial cells
Assay type: functional, tissue-based
Conditions: epithelial cell

Chain of ATP-dependent translocase ABCB1 (P43245 whole entry): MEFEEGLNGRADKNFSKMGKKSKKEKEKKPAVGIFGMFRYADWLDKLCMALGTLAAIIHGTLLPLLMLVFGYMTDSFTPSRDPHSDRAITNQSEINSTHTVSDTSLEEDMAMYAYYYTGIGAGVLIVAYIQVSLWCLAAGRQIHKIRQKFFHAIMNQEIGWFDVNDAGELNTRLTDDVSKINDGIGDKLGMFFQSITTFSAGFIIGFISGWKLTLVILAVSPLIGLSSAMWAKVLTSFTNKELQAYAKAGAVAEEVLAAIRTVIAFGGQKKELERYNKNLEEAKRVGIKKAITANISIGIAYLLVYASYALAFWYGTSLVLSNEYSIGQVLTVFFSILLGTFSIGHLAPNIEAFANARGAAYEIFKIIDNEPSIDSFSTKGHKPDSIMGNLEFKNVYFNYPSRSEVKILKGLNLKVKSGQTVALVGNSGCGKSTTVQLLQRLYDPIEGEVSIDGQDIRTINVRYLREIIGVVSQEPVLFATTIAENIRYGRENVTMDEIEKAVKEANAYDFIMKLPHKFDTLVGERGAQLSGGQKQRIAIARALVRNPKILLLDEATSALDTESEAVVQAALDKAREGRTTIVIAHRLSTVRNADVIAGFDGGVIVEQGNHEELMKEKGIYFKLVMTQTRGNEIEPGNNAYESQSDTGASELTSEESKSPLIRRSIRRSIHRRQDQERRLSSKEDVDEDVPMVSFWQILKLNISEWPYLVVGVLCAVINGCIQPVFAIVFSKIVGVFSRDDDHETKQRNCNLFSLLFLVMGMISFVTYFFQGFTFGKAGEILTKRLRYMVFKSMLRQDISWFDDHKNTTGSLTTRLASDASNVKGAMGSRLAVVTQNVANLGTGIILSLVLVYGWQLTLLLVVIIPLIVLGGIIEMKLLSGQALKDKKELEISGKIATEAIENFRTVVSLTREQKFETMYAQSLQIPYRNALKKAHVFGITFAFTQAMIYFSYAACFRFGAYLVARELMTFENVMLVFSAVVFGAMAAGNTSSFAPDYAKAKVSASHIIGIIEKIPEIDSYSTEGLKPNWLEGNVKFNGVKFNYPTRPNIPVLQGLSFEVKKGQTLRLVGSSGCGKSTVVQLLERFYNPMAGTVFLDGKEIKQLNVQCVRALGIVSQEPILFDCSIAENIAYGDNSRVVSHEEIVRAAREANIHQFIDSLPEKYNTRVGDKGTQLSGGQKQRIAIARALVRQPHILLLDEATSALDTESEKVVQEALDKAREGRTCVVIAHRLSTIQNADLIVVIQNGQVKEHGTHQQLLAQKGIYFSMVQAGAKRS

COS(C)(=O)=O [METHANESULFONIC ACID METHYL ESTER]
Activity: inducer [+]
